The values below are quoted from earlier work in US20220000751A1, “METHOD FOR PREPARING AND USING HAIR TREATMENT AGENTS WITH ORGANIC C1-C6-ALKOXY-SILANES” (Henkel AG & Co. KGaA, priority 2020, published 2022).

Molecules are shown by their SMILES.

The conditions of the data set: 25° C.

`CCN(Cc1cccc(S(=O)(=O)O)c1)c1ccc(C(=C2C=CC(=[N+](CC)Cc3cccc(S(=O)(=O)O)c3)C=C2)c2ccccc2S(=O)(=O)[O-])cc1` [Acid Blue 9]: the solubility in water entry is “more than 20 % by weight”.

For the molecule `O=S(=O)(O)c1ccc(N=Nc2c(O)ccc3ccccc23)cc1` [Acid Orange 7, 4-[(2-hydroxy-1-naphthyl)azo]benzene sulphonate], the solubility in water result is reported as “more than 7 g/L”.

As for `O=C(O)C1=NN(c2ccc(S(=O)(=O)O)cc2)C(=O)C1N=Nc1ccc(S(=O)(=O)O)cc1` (stereo not drawn) [Acid Yellow 23, 4,5-dihydro-5-oxo-1-(4-sulfophenyl)-4-((4-sulfophenyl)azo)-1H-pyrazole-3-carboxylic acid], the “solubility in water (in words)” value was “highly soluble”.
